Each molecule was assayed on clathrin-dependent pathway or macro-pinocytosis pathway (assay: Effect of endocytosis pathway inhibitors on BTNP accumulation in response to TTFields). Conditions: specific inhibitors of clathrin-dependent or macro-pinocytosis pathway.
Format: cell-based
N=C(N)NC(=O)c1nc(Cl)c(N)nc1N [amiloride] was tested, and the “effect on accumulation of BTNPs in cytoplasm in response to TTFields” value (“effect on accumulation of BTNPs” below) was “did not modulate”. CN(C)CCCN1c2ccccc2Sc2ccc(Cl)cc21 [chlorpromazine] was tested, and the “effect on accumulation of BTNPs” value was “did not modulate”. With C=C1[C@@H](C)[C@H]2[C@H](Cc3ccccc3)NC(=O)[C@]23[C@H](OC(C)=O)/C=C/[C@@](C)(O)C(=O)[C@@H](C)C/C=C/[C@H]3[C@@H]1O [cytochalasin D] the “effect on accumulation of BTNPs” value was “did not modulate”.

Source: patent publication US12458709B2, “Compositions and methods for imaging a cell” (NOVOCURE GMBH, priority 2019, dated 2025)
